Experimental data published in ChEMBL document CHEMBL5576054, “Lead compound profiling for small molecule inhibitors of the REV1-CT/RIR Translesion synthesis Protein-Protein interaction” (Bioorg Med Chem, 2024).
pIC50, pKd: −log10 of the molar value. ≈ marks a conversion by molar mass, not a printed value. Calls of active or inactive are those of the source. No cut-off for these calls is given here.

Experiments:
[1] = Disruption of C-terminal REV-1/FAM-tagged Pol kappa RIR (unknown origin) interaction incubated for 1 hr by FP assay; parameters: species or system Homo sapiens
[2] = system: A549; experiment: Inhibition of cologenic survival in human A549 cells incubated for 8 to 10 days by crystal violet staining based analysis; assay type: functional, cell-based; conditions: time 8-10 day
[3] = Toxicity in BALB/c nude mouse assessed as animal death at 200 mg/kg, po qd measured for 3 days; assay type: organism-based; conditions: in vivo, 72 h, time 3 day
[4] = Volume of distribution at steady state in CD-1 mouse at 1 mg/kg, iv by LC-MS/MS analysis; assay type: ADME, organism-based; conditions: mouse, in vivo, iv, 1 mg/kg
[5] = molecular target: T1, DNA repair protein REV1 (Homo sapiens, UniProt Q9UBZ9); experiment: Binding affinity to C-terminal human REV-1 assessed as dissociation constant incubated for 30 mins by MST assay
T1 sequence (Q9UBZ9 whole entry): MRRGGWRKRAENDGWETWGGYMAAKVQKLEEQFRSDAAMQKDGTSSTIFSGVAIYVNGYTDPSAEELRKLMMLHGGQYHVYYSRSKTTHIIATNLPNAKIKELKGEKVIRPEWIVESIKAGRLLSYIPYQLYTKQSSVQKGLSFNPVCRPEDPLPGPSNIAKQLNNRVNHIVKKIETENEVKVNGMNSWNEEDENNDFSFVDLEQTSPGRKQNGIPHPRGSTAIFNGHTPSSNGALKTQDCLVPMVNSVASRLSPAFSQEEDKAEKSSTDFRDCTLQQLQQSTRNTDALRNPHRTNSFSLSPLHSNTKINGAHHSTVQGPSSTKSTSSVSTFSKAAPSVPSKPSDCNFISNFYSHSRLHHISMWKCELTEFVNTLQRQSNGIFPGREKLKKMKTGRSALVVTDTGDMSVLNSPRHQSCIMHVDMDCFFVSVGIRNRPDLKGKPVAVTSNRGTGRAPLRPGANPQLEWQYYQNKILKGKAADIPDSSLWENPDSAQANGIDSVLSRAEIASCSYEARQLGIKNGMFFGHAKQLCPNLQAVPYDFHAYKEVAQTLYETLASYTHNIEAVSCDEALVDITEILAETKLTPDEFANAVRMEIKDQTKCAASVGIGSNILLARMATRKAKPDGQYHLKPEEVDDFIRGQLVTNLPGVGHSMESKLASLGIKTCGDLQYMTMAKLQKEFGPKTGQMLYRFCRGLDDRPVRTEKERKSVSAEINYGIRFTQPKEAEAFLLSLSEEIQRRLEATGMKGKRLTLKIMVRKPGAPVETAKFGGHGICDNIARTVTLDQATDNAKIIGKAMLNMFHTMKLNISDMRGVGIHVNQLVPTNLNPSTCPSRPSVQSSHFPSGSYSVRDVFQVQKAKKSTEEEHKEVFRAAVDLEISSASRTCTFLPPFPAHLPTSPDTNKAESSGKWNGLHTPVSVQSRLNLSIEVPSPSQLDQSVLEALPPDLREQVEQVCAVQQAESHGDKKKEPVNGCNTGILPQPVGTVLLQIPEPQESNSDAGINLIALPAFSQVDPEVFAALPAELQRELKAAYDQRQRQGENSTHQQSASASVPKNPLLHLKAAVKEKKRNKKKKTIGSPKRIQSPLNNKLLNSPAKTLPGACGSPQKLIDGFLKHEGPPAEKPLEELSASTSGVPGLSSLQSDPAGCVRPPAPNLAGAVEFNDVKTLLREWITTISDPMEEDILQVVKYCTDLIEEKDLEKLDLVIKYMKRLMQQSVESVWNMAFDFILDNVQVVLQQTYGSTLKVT

[6] = AUClast in CD-1 mouse at 1 mg/kg, iv by LC-MS/MS analysis; assay type: ADME, organism-based; conditions: in vivo
[7] = C0 in CD-1 mouse at 1 mg/kg, iv by LC-MS/MS analysis; assay type: ADME, organism-based; conditions: mouse, in vivo, iv, 1 mg/kg
[8] = Toxicity in BALB/c nude mouse assessed as general impairment at 30 to 100 mg/kg, po qd for 7 days; assay type: organism-based; conditions: in vivo, 168 h, dose 30-100 mg/kg, time 7 day
[9] = AUClast in CD-1 mouse at 100 mg/kg, ip by LC-MS/MS analysis; assay type: ADME, organism-based; conditions: in vivo
[10] = AUC (infinity) in CD-1 mouse at 1 mg/kg, iv by LC-MS/MS analysis; assay type: ADME, organism-based; conditions: in vivo
[11] = Toxicity in BALB/c nude mouse assessed as visual signs of toxicity at 30 to 100 mg/kg, po qd for 7 days; assay type: organism-based; conditions: in vivo, 168 h, dose 30-100 mg/kg, time 7 day
[12] = Dose normalized AUClast in CD-1 mouse at 100 mg/kg, ip by LC-MS/MS analysis; assay type: ADME, organism-based; conditions: in vivo
[13] = Toxicity in BALB/c nude mouse assessed as effect on body weight at 30 to 100 mg/kg, po qd for 7 days; assay type: organism-based; conditions: in vivo, 168 h, dose 30-100 mg/kg, time 7 day
[14] = MRT (infinity) in CD-1 mouse at 1 mg/kg, iv by LC-MS/MS analysis; assay type: ADME, organism-based; conditions: mouse, in vivo, iv, 1 mg/kg
[15] = Tmax in CD-1 mouse at 100 mg/kg, ip by LC-MS/MS analysis; assay type: ADME, organism-based; conditions: in vivo
[16] = Metabolic stability in human liver microsomes assessed as intrinsic clearance at 1 uM incubated upto 60 mins by LC-MS/MS analysis; assay type: ADME, Microsome; conditions: 1 h
[17] = Area under curve extrapolated from the last time point to infinity in CD-1 mouse at 1 mg/kg, iv by LC-MS/MS analysis; assay type: ADME, organism-based; conditions: in vivo
[18] = MRT (infinity) in CD-1 mouse at 100 mg/kg, ip by LC-MS/MS analysis; assay type: ADME, organism-based; conditions: in vivo
[19] = Half life in CD-1 mouse at 1 mg/kg, iv by LC-MS/MS analysis; assay type: ADME, organism-based; conditions: mouse, in vivo, iv, 1 mg/kg
[20] = Oral bioavailability in CD-1 mouse at 100 mg/kg by LC-MS/MS analysis; assay type: ADME, organism-based; conditions: in vivo
[21] = Dose normalized AUClast in CD-1 mouse at 1 mg/kg, iv by LC-MS/MS analysis; assay type: ADME, organism-based; conditions: in vivo
[22] = Cmax in CD-1 mouse at 100 mg/kg, ip by LC-MS/MS analysis; assay type: ADME, organism-based; conditions: in vivo
[23] = AUC (infinity) in CD-1 mouse at 100 mg/kg, ip by LC-MS/MS analysis; assay type: ADME, organism-based; conditions: in vivo
[24] = Toxicity in BALB/c nude mouse administered orally once daily for 7 days; conditions: in vivo, route po, time 7 day
[25] = Toxicity in BALB/c nude mouse assessed as decrease in animal weight at 200 mg/kg, po qd measured for 2 days; assay type: organism-based; conditions: in vivo, 48 h, time 2 day
[26] = Area under curve extrapolated from the last time point to infinity in CD-1 mouse at 100 mg/kg, ip by LC-MS/MS analysis; assay type: ADME, organism-based; conditions: in vivo
[27] = Half life in CD-1 mouse at 100 mg/kg, ip by LC-MS/MS analysis; assay type: ADME, organism-based; conditions: in vivo
[28] = Solubility of compound in PBS at pH 7.4; assay type: physicochemical
[29] = Solubility of compound in PBS at pH 4; assay type: physicochemical; conditions: buffer
[30] = Metabolic stability in human liver microsomes assessed as half life at 1 uM incubated upto 60 mins by LC-MS/MS analysis; assay type: ADME, Microsome; conditions: 1 h

SMILES: CCCc1cc(C(=O)OCC)c(NC(=O)c2ccccc2)s1
- pIC50 [1]: 5.36

SMILES: CCCc1cc(C(=O)OCC)c(NC(=O)c2ccccc2O)s1
- pIC50 [1]: 4.78

SMILES: CC(=O)N1CCC(C(=O)NCc2cccs2)CC1
- pIC50 [1]: 4.79

SMILES: CCCc1cc(C(=O)OCC)c(NC(=O)c2ccc(O)cc2)s1
- pIC50 [1]: 5.03

SMILES: Nc1ccc(/N=N/c2ccc3ccccc3c2)c(N)n1
- inhibition [2]: Active

SMILES: C=CCOc1cc(OCC=C)cc(C(=O)Nc2sc(CCC)cc2C(=O)OCC)c1
- pIC50 [1]: 4.30

SMILES: COC(=O)c1ccsc1NC(=O)C1CCN(C(C)=O)CC1
- pIC50 [1]: < 4.00

SMILES: CCCc1cc(C(=O)OC)c(NC(=O)c2ccccc2)s1
- pIC50 [1]: 5.33

SMILES: CCOC(=O)c1c(NC(=O)C2CCN(C(C)=O)CC2)sc2c1CCCC2
- pIC50 [1]: 5.24

SMILES: CCCc1cc(C(=O)OCC)c(NC(=O)c2cccc(O)c2)s1
- pIC50 [1]: 5.60

SMILES: CCCc1cc(C(=O)OC)c(NC(=O)C2CCN(C(C)=O)CC2)s1
- Activity [3]: Toxic
- Vdss [4]: 5.96 L/kg
- pKd [5]: 5.17
- AUC(0-t) [6]: 37.3 ng·h/mL
- C0 [7]: 200 ng/mL
- Activity [8]: Non-Toxic
- AUC(0-t) [9]: 2280 ng·h/mL
- AUC(0-inf) [10]: 38.2 ng·h/mL
- Activity [11]: Non-Toxic
- AUClast/dose [12]: 22.8 ng·h/mL
- Activity [13]: Non-Toxic
- MRT [14]: 13.5 min
- Tmax [15]: 15 min
- intrinsic clearance (CLint) [16]: 18.8 µL/min/mg
- pIC50 [1]: 5.39
- %AUCextra [17]: 2.39%
- MRT inf [18]: 169 min
- t1/2 [19]: 16.9 min
- F [20]: 60.8%
- AUClast/dose [21]: 37.3 ng·h/mL
- Cmax [22]: 2780 ng/mL
- AUC(0-inf) [23]: 2320 ng·h/mL
- MTD at 168 h [24]: ≤ 100 mg/kg
- Activity [25]: Toxic
- %AUCextra [26]: 1.74%
- half-life [27]: 340 min

SMILES: CCCc1cc(C(=O)OCC)c(NC(=O)C2CCNCC2)s1
- pIC50 [1]: 5.42

SMILES: Cc1cc(C)c2nc(-c3ccncc3)cc(C(=O)NCCCn3ccnc3)c2c1
- pKd [5]: < 3.70
- intrinsic clearance (CLint) [16]: 148 µL/min/mg
- solubility [28]: 146 µM (≈ 56.3 µg/mL)
- pIC50 [1]: 5.17
- solubility [29]: 268 µM (≈ 103 µg/mL)
- t1/2 [30]: 4.7 min

SMILES: C=CCOc1ccccc1C(=O)Nc1sc(CCC)cc1C(=O)OCC
- pIC50 [1]: 4.83

SMILES: Cc1ccc(/N=N/c2ccc(N)nc2N)cc1C
- inhibition [2]: Active
